Source: patent US11286268B1, “EIF4E-inhibiting compounds and methods” (EFFECTOR THERAPEUTICS, INC., priority 2019, dated 2022)
Read-outs that look alike come from different tables or passages of the source.

Molecular target: recombinant eIF4E (Homo sapiens (Human), UniProt P06730)
Test: Fluorescence polarization competition assay for eIF4E binding potency
Procedure, shortened: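 Competition of test compound against 20 nM EDA-m^7GDP-ATTO-550 for 75 nM recombinant eIF4E, pre-incubated 5 min, in 20 mM Tris pH 7.5, 100 mM NaCl, 1 mM DTT, 0.02% Tween-20, 1% DMSO. Equilibrated 30 min at room temperature, dark; fluorescence polarization read. IC50 from 8-point, 3-fold dilution series.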

[1] = fluorescence polarization competition, 75 nM recombinant eIF4E, 20 nM EDA-m7GDP-ATTO-550, IC50 class, read-out: elF4E FP
[2] = inhibition of eIF4E/EDA-m7GDP-ATTO-550 binding, calculated IC50 values, Table 4B, read-out: IC50
[3] = inhibition of eIF4E/EDA-m7GDP-ATTO-550 binding by 50%, Table 4B calculated values, read-out: IC50

Chain of recombinant eIF4E (P06730 whole entry): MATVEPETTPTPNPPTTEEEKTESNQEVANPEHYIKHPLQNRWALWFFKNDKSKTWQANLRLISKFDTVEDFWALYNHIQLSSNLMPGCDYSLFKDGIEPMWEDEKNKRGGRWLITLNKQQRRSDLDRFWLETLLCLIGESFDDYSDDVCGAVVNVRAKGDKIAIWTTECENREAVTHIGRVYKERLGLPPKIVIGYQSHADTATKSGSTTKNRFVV

SMILES | IC50 [1] [µM] | IC50 [2] [µM] | IC50 [3] [µM]
N#Cc1c(C(F)F)ccc2ncn(CCOc3ccc(Cl)cc3-c3ccnc(C(=O)O)c3)c(=O)c12 [compound 161] | 0.05 to 1 | – | –
CCN(c1ncc2nc(C)n(CC#Cc3ccc(Cl)cc3-c3ccnc4c(C(=O)NS(=O)(=O)c5cccnc5)csc34)c(=O)c2c1C#N)C1CCN(CC(F)(F)C(F)F)CC1 [compound 1709] | – | 0.0284 | –
Cc1nc2cc(C(F)(F)F)cc(C#N)c2c(=O)n1CCOc1ccc(Cl)cc1-c1cncc(-c2nn[nH]n2)c1 [compound 660] | 0.05 to 1 | – | 0.258
CCN(c1ncc2nc(C)n(CC#Cc3ccc(Cl)cc3-c3ccnc4c(C(=O)NS(=O)(=O)c5ccccn5)csc34)c(=O)c2c1C#N)C1CCN([C@H]2C[C@H](OC(F)F)C2)CC1 [compound 1771] | – | 0.0266 | –
Cc1sc2c(-c3cc(Cl)ccc3OCCn3c(C)nc4c(C)c(C(F)(F)F)c(N5CCN(C)CC5)c(C#N)c4c3=O)ccnc2c1C(=O)O [compound 1933] | – | 0.0346 | –
Cc1cc(-c2cc(Cl)ccc2OCCn2c(C)nc3cc(C(F)(F)F)cc(O)c3c2=O)c2scc(C(=O)O)c2n1 [351a] | – | – | 0.885
CCN(Cc1ccccc1)S(=O)(=O)c1ccc2nc(C)n(CCOc3ccc(Cl)cc3-c3ccnc4c(C(=O)O)csc34)c(=O)c2c1C#N [compound 253] | < 0.05 | – | 0.046
Cc1nc2c(S(=O)(=O)N(C)C)ccc(C#N)c2c(=O)n1CCOc1ccc(Cl)cc1-c1ccnc2c(C(=O)O)csc12 [compound 237] | 0.05 to 1 | – | 0.0548
Cc1nc2cnc(N(C)C3CCN(CC(C)(C)C(F)(F)F)CC3)c(C#N)c2c(=O)n1CC#Cc1ccc(Cl)cc1-c1ccnc2c(C(=O)O)csc12 [compound 1586] | – | 0.0318 | –
Cc1nc2cnc(N3CC4(CNC4)C3)c(C#N)c2c(=O)n1CC#Cc1ccc(Cl)cc1-c1ccnc2c(C(=O)O)csc12 [compound 1633] | – | 0.0526 | –
Cc1cc(-c2cc(Cl)ccc2OCCn2c(C)nc3cc(C(F)(F)F)c(-c4cnc(C)nc4C)c(C#N)c3c2=O)c2scc(C(=O)O)c2n1 [compound 437] | < 0.05 | – | 0.00621
Cc1nc2cnc(N3CCN(C4(C)CC(F)(F)C4)CC3)c(C#N)c2c(=O)n1CCOc1ccc(Cl)cc1-c1ccnc2c(C(=O)O)csc12 [compound 1641] | – | 0.0189 | –
CCN(c1ncc2nc(C)n(CC#Cc3ccc(Cl)cc3-c3ccnc4c(C(=O)NS(=O)(=O)C(C)(C)C)csc34)c(=O)c2c1C#N)C1CCN(C2COC2)CC1 [compound 1747] | – | 0.0165 | –
Cc1nc2cc(C(F)(F)F)cc(C#N)c2c(=O)n1CCOc1ccc(Cl)cc1-c1cc(C(F)F)nc2c(C(=O)O)csc12 [compound 563] | < 0.05 | – | 0.0144
Cc1nc2cc(CCN(C)C)cc(C#N)c2c(=O)n1CCOc1ccc(Cl)cc1-c1ccnc2c(C(=O)O)csc12 [compound 513] | < 0.05 | – | 0.0116
Cc1nc2cnc(Nc3cc(F)cc(F)c3)cc2c(=O)n1CCOc1ccc(Cl)cc1-c1cccc(C(=O)O)c1 [compound 2002] | – | 0.259 | –
Cc1nc2cc(C(F)(F)F)cc(C#N)c2c(=O)n1CCCc1ccc(Cl)cc1-c1cccc(C(=O)O)c1 [compound 146] | 0.05 to 1 | – | 0.259
Cc1nc2cc(C(F)(F)F)cc(C#N)c2c(=O)n1CCOc1ccc(Cl)cc1-c1csc2c(C(=O)O)csc12 [compound 203] | 0.05 to 1 | – | 0.0806
Cc1nc2cc(C(F)(F)F)c(CN3CCOCC3)c(C#N)c2c(=O)n1CC#Cc1ccc(Cl)cc1-c1ccnc2c(C(=O)O)csc12 [compound 617] | < 0.05 | – | 0.0397
CCc1cc(-c2cc(Cl)ccc2OCCn2c(C)nc3cnc(N4CCN(C)CC4)c(C#N)c3c2=O)c2scc(C(=O)O)c2n1 [compound 1086] | < 0.05 | – | 0.0384
Cc1nc2cnc(N3CCN(CCC(F)(F)F)CC3)c(C#N)c2c(=O)n1CC#Cc1ccc(Cl)cc1-c1ccnc2c(C(=O)O)csc12 [compound 1353] | – | 0.0172 | –
Cc1nc2c(ccc3cnncc32)c(=O)n1CCOc1ccc(Cl)cc1-c1ccnc2c(C(=O)O)csc12 [compound 659] | < 0.05 | – | 0.0264
Cc1nc2cnc(C3CC3)c(C#N)c2c(=O)n1CC#Cc1ccc(Cl)cc1-c1ccnc2c(C(=O)O)csc12 [compound 384] | < 0.05 | – | 0.0209
Cc1cc(-c2c(C(F)(F)F)cc3nc(C)n(CCOc4ccc(Cl)cc4-c4cc(C)nc5c(C(=O)O)csc45)c(=O)c3c2C#N)c(F)cn1 [compound 471] | < 0.05 | – | 0.0288
Cc1nc2cnc(N(C)C3CCN(CC(C)F)CC3)c(C#N)c2c(=O)n1CCOc1ccc(Cl)cc1-c1ccnc2c(C(=O)O)csc12 (centres unmarked) [compound 1654] | – | 0.021 | –
C#Cc1c(C(F)(F)F)cc2nc(C)n(CCOc3ccc(Cl)cc3-c3cc(C)nc4c(C(=O)O)csc34)c(=O)c2c1C#N [compound 790] | < 0.05 | – | 0.0178
Cc1nc2cc(C(F)(F)F)cc(C#N)c2c(=O)n1CCOc1ncc(Cl)cc1-c1ccnc2c(C(=O)O)csc12 [compound 259] | 0.05 to 1 | – | > 1

SMILES | IC50 [1] [µM] | IC50 [2] [µM] | IC50 [3] [µM]
N#Cc1cc2c(=O)n(CCOc3ccc(Cl)cc3-c3cnc(C(F)F)c(C(=O)O)c3)cnc2cn1 [compound 109] | > 1 | – | 19.2
Cc1nc2cnc(N(C)C3CCN(C4CC(F)(F)C4)CC3)c(C#N)c2c(=O)n1CC#Cc1ccc(Cl)cc1-c1ccnc2c(C(=O)NS(=O)(=O)CF)csc12 [compound 1817] | – | 0.0258 | –
Cc1nc2cnc(N3CCN(C4(CC(F)(F)F)CC4)CC3)c(C#N)c2c(=O)n1CCOc1ccc(Cl)cc1-c1ccnc2c(C(=O)O)csc12 [compound 1361] | – | 0.0213 | –
Cc1cc(-c2cc(Cl)ccc2OCCn2c(C)nc3c(F)cc(C(F)F)c(C#N)c3c2=O)c2scc(C(=O)NC(=O)N(C)C)c2n1 [compound 594] | > 1 | – | 1.35
Cc1nc2cnc(N(C)C3CCN(CC(F)(F)F)CC3)c(C#N)c2c(=O)n1CC#Cc1ccc(Cl)cc1-c1ccnc2c(C(=O)O)csc12 [compound 1140] | < 0.05 | – | 0.00614
Cc1nc2cnc(N3C[C@H]4CN(CC(F)F)C[C@H]4C3)c(C#N)c2c(=O)n1CCOc1ccc(Cl)cc1-c1ccnc2c(C(=O)O)csc12 [compound 1478] | – | 0.013 | –
Cc1cc(-c2cc(Cl)ccc2OCCn2c(C)nc3cc(C(F)(F)F)c(-c4ccccn4)nc3c2=O)c2scc(C(=O)O)c2n1 [compound 462] | < 0.05 | – | 0.0105
Cc1cc(-c2c(CF)cc3nc(C)n(CCOc4ccc(Cl)cc4-c4cc(C)nc5c(C(=O)O)csc45)c(=O)c3c2C#N)cc(C)n1 [compound 933] | 0.05 to 1 | – | 0.122
Cc1cc(-c2cc(Cl)ccc2OCCn2c(C)nc3c(C4COC4)ncc(C#N)c3c2=O)c2scc(C(=O)O)c2n1 [compound 1419] | – | 0.00676 | –
Cc1nc2c(C3CCC(F)(F)CC3)ncc(C#N)c2c(=O)n1CCOc1ccc(Cl)cc1-c1ccnc2c(C(=O)O)csc12 [compound 284] | < 0.05 | – | 0.0196
Cn1nc(C(=O)O)cc1-c1cc(Cl)ccc1OCCn1cnc2cnc(C#N)cc2c1=O [compound 84] | > 1 | – | 1.25
Cc1nc2cnc(N(C)[C@@H]3[C@@H]4C[C@H]3CN(CC(C)(F)F)C4)c(C#N)c2c(=O)n1CC#Cc1ccc(Cl)cc1-c1ccnc2c(C(=O)O)csc12 [compound 1576] | – | 0.0179 | –
Cc1ncc(F)cc1-c1c(C(F)(F)F)cc2nc(C)n(CCOc3ccc(Cl)cc3-c3ccnc4c(C(=O)O)csc34)c(=O)c2c1C#N [compound 847] | < 0.05 | – | 0.044
Cc1cc(-c2cc(Cl)ccc2OCCn2c(C)nc3cc(C(F)(F)F)c(-n4cccn4)c(C#N)c3c2=O)c2scc(C(=O)O)c2n1 [compound 633] | < 0.05 | – | 0.0129
N#Cc1cncc2ncn(CCOc3ccc(Cl)cc3-c3ccc(C(=O)O)c(CCCCC(O)CO)c3)c(=O)c12 (centres unmarked) [compound 184] | 0.05 to 1 | – | –
CCN(c1ncc2nc(C)n(CC#Cc3ccc(Cl)cc3-c3ccnc4c(C(=O)NS(C)(=O)=O)csc34)c(=O)c2c1C#N)C1CCN([C@H]2C[C@@H](OC(F)(F)F)C2)CC1 [compound 1776] | – | 0.00365 | –
Cc1nc2cnc(N3CCC34CN(CC(F)F)C4)c(C#N)c2c(=O)n1CC#Cc1ccc(Cl)cc1-c1ccnc2c(C(=O)O)csc12 [compound 1499] | – | 0.0275 | –
Cc1nc2cc(C(F)(F)F)cc(C#N)c2c(=O)n1CCOc1cnc(C#N)nc1-c1ccnc2c(C(=O)O)csc12 [compound 455] | 0.05 to 1 | – | 0.473
Cc1nc2cnc(N3CCC(N(C)C4CC(F)(F)C4)CC3)c(C#N)c2c(=O)n1CC#Cc1ccc(Cl)cc1-c1ccnc2c(C(=O)O)csc12 [compound 1592] | – | 0.0203 | –
Cc1nc2cc(C#N)cc(C#N)c2c(=O)n1CCOc1ccc(Cl)cc1-c1ccnc2c(C(=O)O)csc12 [compound 212] | < 0.05 | – | 0.04
Cc1cc(-c2cc(Cl)ccc2OCCn2c(C)nc3cnc(C4CC(F)(F)C4)c(C#N)c3c2=O)c2scc(C(=O)O)c2n1 [compound 928] | < 0.05 | – | 0.0387
COc1cc(F)c(C(=O)O)cc1-c1cc(Cl)ccc1OCCn1cnc2cnc(C#N)cc2c1=O [compound 97] | > 1 | – | > 3
Cc1cc(-c2cc(Cl)ccc2OCCn2c(C)nc3cc(C(F)(F)F)ccc3c2=O)c2scc(C(=O)O)c2n1 [351b] | – | – | 0.0936
Cc1cc(-c2cc(Cl)ccc2OCCn2c(C)nc3c(C)nc(-c4c(C)cccc4F)c(C#N)c3c2=O)c2scc(C(=O)O)c2n1 [compound 871] | < 0.05 | – | –
CCc1cc(-c2cc(Cl)ccc2OCCn2c(C)nc3c(N(C)C)nc(C4CC4)c(C#N)c3c2=O)c2scc(C(=O)O)c2n1 [compound 1199] | < 0.05 | 0.0182 | –
CSC1CN(c2c(Cl)cc3nc(C)n(CCOc4ccc(Cl)cc4-c4cc(C)nc5c(C(=O)O)csc45)c(=O)c3c2C#N)C1 [compound 704] | 0.05 to 1 | – | 0.089
